Molecular target: recombinant human CCR5 receptor (Homo sapiens, UniProt P51681)
Assay: in vitro radioligand binding assay: inhibition of binding of iodinated MIP-1α (scintillation proximity)
Settings: displacement of iodinated MIP-1α from membranes of Chinese hamster ovary cells expressing recombinant human CCR5; negative log10 of IC50; average if tested more than once
Description: The ability of compounds to inhibit the binding of MIP-1α was assessed by an in vitro radioligand binding assay. Membranes were prepared from Chinese hamster ovary cells which expressed the recombinant human CCR5 receptor. These membranes were incubated with […] iodinated MIP-1α, scintillation proximity beads and various concentrations of the compounds of the invention in 96-well plates. The amount of iodinated MIP-1α bound to the receptor was determined by scintillation counting. Competition curves were obtained for compounds and the concentration of compound which displaced 50% of bound iodinated MIP-1α was calculated (IC50).
Results from this test for certain compounds of the invention are presented in Table V. In Table V the results are presented as Pic50 values. A Pic50 value is the negative log (to base 10) of the IC50 result, so an IC50 of 1 μM (that is 1×10^−6M) gives a Pic50 of 6. If a compound was tested more than once then the data below is an average of the probative tests results.

recombinant human CCR5 receptor, sequence (P51681 whole entry): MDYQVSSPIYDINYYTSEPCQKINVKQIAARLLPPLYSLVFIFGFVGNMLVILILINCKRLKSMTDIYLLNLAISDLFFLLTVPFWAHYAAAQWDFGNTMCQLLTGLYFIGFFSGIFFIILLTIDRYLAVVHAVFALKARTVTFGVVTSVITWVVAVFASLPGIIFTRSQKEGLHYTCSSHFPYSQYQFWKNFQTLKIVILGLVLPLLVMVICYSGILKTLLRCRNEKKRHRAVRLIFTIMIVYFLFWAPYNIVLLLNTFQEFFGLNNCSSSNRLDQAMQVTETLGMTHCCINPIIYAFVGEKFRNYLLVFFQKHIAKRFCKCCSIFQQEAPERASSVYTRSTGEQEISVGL

SMILES | IC50
CCN(C(=O)CC1CCN(S(C)(=O)=O)CC1)C1CCN(CC[C@H](c2ccc(S(C)(=O)=O)cc2)c2cc(F)cc(F)c2)CC1 [Compound 1 Table III, N-(1-{(3R)-3-(3,5-difluorophenyl)-3-[4-(methylsulphonyl)phenyl]propyl}piperidin-4-yl)-N-ethyl-2-[1-(methylsulphonyl)piperidin-4-yl]acetamide] | 0.794 nM
CCN(C(=O)CC1CCOCC1)C1CCN(CC[C@H](c2ccc(S(C)(=O)=O)cc2)c2cc(F)cc(F)c2)CC1 [Compound 2 Table III, N-(1-{(3R)-3-(3,5-difluorophenyl)-3-[4-(methylsulphonyl)phenyl]propyl}piperidin-4-yl)-N-ethyl-2-(tetrahydro-2H-pyran-4-yl)acetamide] | 15.8 nM
CCN(C(=O)CN1CCN(S(C)(=O)=O)CC1)C1CCN(CC[C@@H](c2cc(F)cc(F)c2)C2CCN(S(C)(=O)=O)CC2)CC1 [Compound 5 Table I, N-(1-{(3R)-3-(3,5-difluorophenyl)-3-[1-(methylsulfonyl)piperidin-4-yl]propyl}piperidin-4-yl)-N-ethyl-2-[4-(methylsulfonyl)piperazin-1-yl]acetamide] | 3.16 nM

Now those with a lower IC50, led by results:

IC50 | SMILES
0.316 nM | CCN(C(=O)NCC1CCN(S(C)(=O)=O)CC1)C1CCN(CC[C@H](c2ccc(S(C)(=O)=O)cc2)c2cc(F)cc(F)c2)CC1 [Compound 1 Table IV]
0.316 nM | C=CCN(C(=O)CC1CCN(S(C)(=O)=O)CC1)C1CCN(CC[C@@H](c2cc(F)cc(F)c2)C2CCN(S(C)(=O)=O)CC2)CC1 [Compound 7 Table I, N-allyl-N-(1-{(3R)-3-(3,5-difluorophenyl)-3-[1-(methylsulfonyl)piperidin-4-yl]propyl}piperidin-4-yl)-2-[1-(methylsulfonyl)piperidin-4-yl]acetamide]
